Experimental data reported in paper doi:10.1101/2021.04.08.439011v1 (biorxiv, 2021).

Tests used:
Conditions in all cases: 1 µM; binder
[1] = molecular target: AKT2 (Homo sapiens, UniProt P31751)
[2] = molecular target: AKT3 (Homo sapiens, UniProt Q9Y243)
[3] = molecular target: ALK(L1196M) (Homo sapiens, UniProt Q9UM73, L1196M)
[4] = molecular target: ASK2 (Homo sapiens, UniProt O95382)
[5] = molecular target: BRAF (Homo sapiens, UniProt P15056)
[6] = molecular target: CDK9 (Homo sapiens, UniProt P50750)
Sequence of CDK9 (P50750 whole entry): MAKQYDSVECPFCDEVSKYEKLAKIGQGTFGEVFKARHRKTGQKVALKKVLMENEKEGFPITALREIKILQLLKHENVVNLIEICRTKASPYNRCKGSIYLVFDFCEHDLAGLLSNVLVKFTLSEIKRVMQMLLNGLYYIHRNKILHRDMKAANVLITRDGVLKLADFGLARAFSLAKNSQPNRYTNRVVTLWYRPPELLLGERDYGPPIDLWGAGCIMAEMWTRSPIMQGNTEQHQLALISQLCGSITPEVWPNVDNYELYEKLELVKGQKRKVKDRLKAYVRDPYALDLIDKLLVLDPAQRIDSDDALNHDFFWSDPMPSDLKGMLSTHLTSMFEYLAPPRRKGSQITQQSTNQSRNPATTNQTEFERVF

[7] = molecular target: DDR2 (Homo sapiens, UniProt Q16832)
[8] = molecular target: EPHA7 (Homo sapiens, UniProt Q15375)
[9] = molecular target: EPHB3 (Homo sapiens, UniProt P54753)
[10] = molecular target: ERBB3 (Homo sapiens, UniProt P21860)
[11] = molecular target: ERK8 (Homo sapiens, UniProt Q8TD08)
[12] = molecular target: FES (Homo sapiens, UniProt P07332)
[13] = molecular target: IRAK1 (Homo sapiens, UniProt P51617)
Sequence of IRAK1 (P51617 whole entry): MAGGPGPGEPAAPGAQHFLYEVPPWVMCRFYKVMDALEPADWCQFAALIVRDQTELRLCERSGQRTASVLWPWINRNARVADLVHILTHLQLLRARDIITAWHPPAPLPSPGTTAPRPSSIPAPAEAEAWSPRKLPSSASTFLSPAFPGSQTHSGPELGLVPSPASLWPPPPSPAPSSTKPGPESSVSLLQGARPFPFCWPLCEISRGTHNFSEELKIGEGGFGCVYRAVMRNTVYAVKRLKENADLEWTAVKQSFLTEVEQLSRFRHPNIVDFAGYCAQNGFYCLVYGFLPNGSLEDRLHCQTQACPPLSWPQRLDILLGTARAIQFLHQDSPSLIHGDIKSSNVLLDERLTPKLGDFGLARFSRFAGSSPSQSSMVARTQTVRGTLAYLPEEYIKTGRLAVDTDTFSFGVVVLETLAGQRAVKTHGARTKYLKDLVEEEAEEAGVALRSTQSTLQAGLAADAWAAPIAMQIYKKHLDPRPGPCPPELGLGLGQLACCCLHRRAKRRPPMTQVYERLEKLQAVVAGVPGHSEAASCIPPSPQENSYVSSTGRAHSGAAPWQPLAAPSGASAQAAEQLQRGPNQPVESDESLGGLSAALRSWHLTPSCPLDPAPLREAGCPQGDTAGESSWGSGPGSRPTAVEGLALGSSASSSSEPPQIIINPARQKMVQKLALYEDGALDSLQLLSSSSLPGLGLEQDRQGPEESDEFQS

[14] = molecular target: LIMK1 (Homo sapiens, UniProt P53667)
[15] = molecular target: LRRK2(G2019S) (Homo sapiens, UniProt Q5S007, G2019S)
Sequence of LRRK2(G2019S) (Q5S007 whole entry G2019S): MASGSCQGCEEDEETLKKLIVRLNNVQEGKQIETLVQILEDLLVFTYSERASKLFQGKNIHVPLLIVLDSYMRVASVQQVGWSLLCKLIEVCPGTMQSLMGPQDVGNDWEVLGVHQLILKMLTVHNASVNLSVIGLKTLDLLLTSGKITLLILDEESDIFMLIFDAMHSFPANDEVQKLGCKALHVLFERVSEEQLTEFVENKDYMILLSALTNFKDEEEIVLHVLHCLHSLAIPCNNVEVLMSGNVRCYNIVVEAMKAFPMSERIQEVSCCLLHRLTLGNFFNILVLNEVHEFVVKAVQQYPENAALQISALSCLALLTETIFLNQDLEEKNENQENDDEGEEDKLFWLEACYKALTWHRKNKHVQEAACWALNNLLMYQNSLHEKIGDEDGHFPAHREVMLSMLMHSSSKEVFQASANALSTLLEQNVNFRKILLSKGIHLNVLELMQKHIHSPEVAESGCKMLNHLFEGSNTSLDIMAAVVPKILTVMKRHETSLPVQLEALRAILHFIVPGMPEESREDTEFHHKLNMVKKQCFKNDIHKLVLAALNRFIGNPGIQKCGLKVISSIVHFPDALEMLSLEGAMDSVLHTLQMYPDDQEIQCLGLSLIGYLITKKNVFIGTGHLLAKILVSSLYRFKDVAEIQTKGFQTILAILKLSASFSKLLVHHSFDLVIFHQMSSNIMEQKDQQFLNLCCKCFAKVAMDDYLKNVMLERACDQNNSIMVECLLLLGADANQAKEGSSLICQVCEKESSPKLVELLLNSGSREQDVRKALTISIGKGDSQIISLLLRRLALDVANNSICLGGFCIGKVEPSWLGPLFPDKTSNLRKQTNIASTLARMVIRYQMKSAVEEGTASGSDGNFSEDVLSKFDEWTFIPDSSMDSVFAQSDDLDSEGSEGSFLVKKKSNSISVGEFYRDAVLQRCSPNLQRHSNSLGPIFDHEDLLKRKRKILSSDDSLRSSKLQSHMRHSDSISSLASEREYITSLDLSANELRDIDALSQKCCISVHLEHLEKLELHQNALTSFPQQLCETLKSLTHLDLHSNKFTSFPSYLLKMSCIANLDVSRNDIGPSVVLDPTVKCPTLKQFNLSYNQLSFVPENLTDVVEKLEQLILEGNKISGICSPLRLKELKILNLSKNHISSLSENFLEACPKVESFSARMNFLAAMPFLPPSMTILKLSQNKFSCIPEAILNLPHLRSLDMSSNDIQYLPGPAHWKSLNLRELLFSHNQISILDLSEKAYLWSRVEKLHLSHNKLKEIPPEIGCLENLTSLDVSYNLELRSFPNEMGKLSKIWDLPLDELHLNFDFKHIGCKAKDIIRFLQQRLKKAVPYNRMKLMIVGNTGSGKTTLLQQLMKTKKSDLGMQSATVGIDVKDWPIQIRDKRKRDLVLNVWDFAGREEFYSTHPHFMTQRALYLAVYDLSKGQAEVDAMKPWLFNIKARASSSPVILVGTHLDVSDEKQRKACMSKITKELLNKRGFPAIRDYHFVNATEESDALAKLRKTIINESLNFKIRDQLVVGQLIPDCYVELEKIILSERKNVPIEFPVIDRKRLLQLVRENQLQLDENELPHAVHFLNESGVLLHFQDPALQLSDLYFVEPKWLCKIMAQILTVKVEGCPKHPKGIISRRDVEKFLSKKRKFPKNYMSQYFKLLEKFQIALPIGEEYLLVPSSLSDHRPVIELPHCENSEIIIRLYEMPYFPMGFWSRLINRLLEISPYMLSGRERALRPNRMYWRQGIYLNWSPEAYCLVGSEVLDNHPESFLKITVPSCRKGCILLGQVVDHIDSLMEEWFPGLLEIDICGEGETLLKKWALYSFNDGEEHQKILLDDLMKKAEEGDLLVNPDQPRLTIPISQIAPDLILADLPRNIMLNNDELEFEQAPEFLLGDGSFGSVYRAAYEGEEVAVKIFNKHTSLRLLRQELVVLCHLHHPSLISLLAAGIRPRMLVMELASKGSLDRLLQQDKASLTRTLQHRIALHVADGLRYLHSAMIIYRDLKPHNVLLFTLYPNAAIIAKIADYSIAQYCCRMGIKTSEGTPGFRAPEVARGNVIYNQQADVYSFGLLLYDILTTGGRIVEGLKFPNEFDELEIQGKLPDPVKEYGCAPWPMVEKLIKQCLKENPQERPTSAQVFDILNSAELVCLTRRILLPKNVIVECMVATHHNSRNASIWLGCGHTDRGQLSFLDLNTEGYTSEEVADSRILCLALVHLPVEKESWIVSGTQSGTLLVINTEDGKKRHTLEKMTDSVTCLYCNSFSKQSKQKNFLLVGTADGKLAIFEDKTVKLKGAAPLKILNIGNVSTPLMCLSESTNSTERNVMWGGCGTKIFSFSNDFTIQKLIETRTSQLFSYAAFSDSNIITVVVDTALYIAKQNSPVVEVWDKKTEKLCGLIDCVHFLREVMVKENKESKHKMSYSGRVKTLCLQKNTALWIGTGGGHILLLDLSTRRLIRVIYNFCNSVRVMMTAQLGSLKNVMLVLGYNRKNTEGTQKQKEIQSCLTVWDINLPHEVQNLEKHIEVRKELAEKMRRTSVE

[16] = molecular target: LYN (Homo sapiens, UniProt P07948)
[17] = molecular target: MTOR (Homo sapiens, UniProt P42345)
[18] = molecular target: MYLK2 (Homo sapiens, UniProt Q9H1R3)
[19] = molecular target: PCTK3 (Homo sapiens, UniProt Q07002)
[20] = molecular target: PIM3 (Homo sapiens, UniProt Q86V86)
[21] = molecular target: PKMYT1 (Homo sapiens, UniProt Q99640)
[22] = molecular target: PRKCI (Homo sapiens, UniProt P41743)
Sequence of PRKCI (P41743 whole entry): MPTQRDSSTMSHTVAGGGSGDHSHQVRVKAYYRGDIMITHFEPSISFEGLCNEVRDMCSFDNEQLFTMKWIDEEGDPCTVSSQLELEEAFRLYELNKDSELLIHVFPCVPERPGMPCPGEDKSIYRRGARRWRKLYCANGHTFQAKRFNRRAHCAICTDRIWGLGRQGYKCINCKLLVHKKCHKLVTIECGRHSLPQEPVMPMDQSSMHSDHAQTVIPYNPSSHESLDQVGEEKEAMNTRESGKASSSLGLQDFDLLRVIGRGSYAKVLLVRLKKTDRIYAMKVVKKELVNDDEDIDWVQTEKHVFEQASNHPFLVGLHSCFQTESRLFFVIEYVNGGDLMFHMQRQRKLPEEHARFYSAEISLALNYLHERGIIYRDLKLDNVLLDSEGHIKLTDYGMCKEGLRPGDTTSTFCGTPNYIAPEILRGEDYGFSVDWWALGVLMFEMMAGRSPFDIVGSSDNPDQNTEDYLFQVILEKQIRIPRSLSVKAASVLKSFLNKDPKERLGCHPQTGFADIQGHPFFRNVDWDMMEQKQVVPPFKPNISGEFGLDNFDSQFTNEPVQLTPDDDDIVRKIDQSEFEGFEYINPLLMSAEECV

[23] = molecular target: PRKD2 (Homo sapiens, UniProt Q9BZL6)
[24] = molecular target: PRKG2 (Homo sapiens, UniProt Q13237)
Sequence of PRKG2 (Q13237 whole entry): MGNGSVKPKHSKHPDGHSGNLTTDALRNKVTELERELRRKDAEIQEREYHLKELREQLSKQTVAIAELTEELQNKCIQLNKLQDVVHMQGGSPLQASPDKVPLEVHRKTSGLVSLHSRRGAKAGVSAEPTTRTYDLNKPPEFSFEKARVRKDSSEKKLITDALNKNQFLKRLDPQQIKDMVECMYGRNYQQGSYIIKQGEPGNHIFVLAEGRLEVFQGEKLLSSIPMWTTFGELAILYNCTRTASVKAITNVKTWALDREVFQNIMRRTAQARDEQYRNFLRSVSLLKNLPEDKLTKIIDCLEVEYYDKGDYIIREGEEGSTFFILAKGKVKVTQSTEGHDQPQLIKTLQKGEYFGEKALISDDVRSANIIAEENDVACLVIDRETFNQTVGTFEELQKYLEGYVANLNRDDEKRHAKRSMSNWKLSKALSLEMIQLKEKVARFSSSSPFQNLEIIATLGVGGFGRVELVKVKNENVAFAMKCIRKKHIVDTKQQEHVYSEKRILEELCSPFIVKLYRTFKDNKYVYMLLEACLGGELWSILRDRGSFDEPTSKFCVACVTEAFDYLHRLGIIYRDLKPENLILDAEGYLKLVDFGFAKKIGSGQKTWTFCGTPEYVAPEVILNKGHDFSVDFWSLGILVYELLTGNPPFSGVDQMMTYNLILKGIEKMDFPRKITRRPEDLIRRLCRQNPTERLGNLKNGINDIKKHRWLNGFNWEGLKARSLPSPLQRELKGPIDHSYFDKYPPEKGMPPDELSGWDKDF

[25] = molecular target: SGK3 (Homo sapiens, UniProt Q96BR1)
[26] = molecular target: SLK (Homo sapiens, UniProt Q9H2G2)
[27] = molecular target: SgK110 (Homo sapiens, UniProt P0C264)
[28] = molecular target: TBK1 (Homo sapiens, UniProt Q9UHD2)
[29] = molecular target: TESK1 (Homo sapiens, UniProt Q15569)
[30] = molecular target: TRKB (Homo sapiens, UniProt Q16620)
[31] = molecular target: YANK1 (Homo sapiens, UniProt Q8WU08)

For CNc1ncc2cc(-c3ccc(-c4cccc(C)n4)cc3Cl)c(=O)n(C[C@H]3OC[C@H](N)CO3)c2n1 [compound 6, G-5555], the “Percent Control” value [1] was 100%, the “Percent Control” value [2] was 48% and the “Percent Control” value [3] was 100%. For the same compound, the “Percent Control” value [4] was 70%, the “Percent Control” value [5] was 100% and the “Percent Control” value [6] was 100%. For the same compound, the “Percent Control” value [7] was 100%, the “Percent Control” value [8] was 100% and the “Percent Control” value [9] was 100%. For the same compound, the “Percent Control” value [10] was 86%, the “Percent Control” value [11] was 100% and the “Percent Control” value [12] was 84%. The “Percent Control” value [13] was 49%, the “Percent Control” value [14] was 59% and the “Percent Control” value [15] was 100%. For the same compound, the “Percent Control” value [16] was 74%, the “Percent Control” value [17] was 83% and the “Percent Control” value [18] was 81%. The “Percent Control” value [19] was 100%, the “Percent Control” value [20] was 100% and the “Percent Control” value [21] was 100%. The “Percent Control” value [22] was 63%, the “Percent Control” value [23] was 27% and the “Percent Control” value [24] was 94%. The “Percent Control” value [25] was 60%, the “Percent Control” value [26] was 33% and the “Percent Control” value [27] was 71%. The “Percent Control” value [28] was 68%, the “Percent Control” value [29] was 99% and the “Percent Control” value [30] was 100%. For the same compound, the “Percent Control” value [31] was 3.7%.
